In patent publication US6969702B2, “Compounds and methods for increasing neurogenesis” (priority 2002, dated 2005):
Like-named read-outs stand apart in the source and are kept apart here. Marks after values point to notes of the source that are not given here. Bridge positions count the residues as written; N and C are the ends. Square brackets hold non-standard residues; d marks the D form. Ends that are not written are not given here. Peptide text beside a SMILES is read from it. pGlu = O=C1CC[C@@H](C(=O)O)N1

Tests used:
[1] = test system: NFAT-Luciferace reporter (Ca^2+); settings: Table 4; for Fold Induction NFAT: vs vehicle; for NFAT Luciferace units: 24 hours after induction
[2] = test system: mouse adult neural stem cells; experiment: ATP-assay: proliferation (ATP levels) of neurosphere-derived cells; settings: for Fold Induction ATP: vs vehicle
Adult neural stem cells = experiment: Flow cytometry for early neuronal marker Doublecortin; settings: Table 6, 100 nM; for % Doublecortin-positive cells: 4 days; for Fold Induction (Doublecortin-positive cells): vs EGF/FGF
[3] = test system: cAMP activation in mouse adult neural stem cells; experiment: cAMP detection (HitHunter EFC Cyclic AMP Chemiluminescence Assay); settings: Table 2; for Fold Induction cAMP: vs vehicle

Question: With CC(C)C[C@H](NC(=O)CNC(=O)[C@H](C)NC(=O)[C@H](CC(C)C)NC(=O)[C@H](CCCNC(=N)N)NC(=O)[C@H](Cc1cnc[nH]1)NC(=O)[C@@H](NC(=O)[C@@H](N)C(C)C)[C@@H](C)O)C(=O)N[C@@H](CC(C)C)C(=O)N[C@@H](CO)C(=O)N[C@@H](CCCNC(=N)N)C(=O)N[C@@H](CO)C(=O)NCC(=O)NCC(=O)N[C@H](C(=O)N[C@H](C(=O)N[C@@H](CCCCN)C(=O)N[C@@H](CC(N)=O)C(=O)N[C@@H](CC(N)=O)C(=O)N[C@@H](Cc1ccccc1)C(=O)N[C@H](C(=O)N1CCC[C@H]1C(=O)N[C@H](C(=O)N[C@@H](CC(N)=O)C(=O)N[C@H](C(=O)NCC(=O)N[C@@H](CO)C(=O)N[C@@H](CCCCN)C(=O)N[C@@H](C)C(=O)N[C@@H](Cc1ccccc1)C(N)=O)C(C)C)[C@@H](C)O)C(C)C)C(C)C)C(C)C [CGRP (8-37)] as the compound, how does the “Fold Induction NFAT” value ([1]; 15 nM) read?
Answer: 1.3** fold

Question: What about the “Fold Induction ATP” value ([2]; Table 4, 100 nM) of the same compound?
Answer: 1.2** fold

Question: CC[C@H](C)[C@H](NC(=O)[C@H](C)NC(=O)[C@H](CC(=O)O)NC(=O)[C@H](C)NC(=O)[C@@H](N)Cc1ccc(O)cc1)C(=O)N[C@@H](Cc1ccccc1)C(=O)N[C@H](C(=O)N[C@@H](CC(N)=O)C(=O)N[C@@H](CO)C(=O)N[C@@H](Cc1ccc(O)cc1)C(=O)N[C@@H](CCCNC(=N)N)C(=O)N[C@@H](CCCCN)C(=O)N[C@H](C(=O)N[C@@H](CC(C)C)C(=O)NCC(=O)N[C@@H](CCC(N)=O)C(=O)N[C@@H](CC(C)C)C(=O)N[C@@H](CO)C(=O)N[C@@H](C)C(=O)N[C@@H](CCCNC(=N)N)C(=O)N[C@@H](CCCCN)C(=O)N[C@@H](CC(C)C)C(=O)N[C@@H](CC(C)C)C(=O)N[C@@H](CCC(N)=O)C(=O)N[C@@H](CC(=O)O)C(=O)N[C@H](C(=O)N[C@@H](CCSC)C(=O)N[C@@H](CO)C(=O)N[C@@H](CCCNC(=N)N)C(=O)N[C@@H](CCC(N)=O)C(=O)N[C@@H](CCC(N)=O)C(=O)NCC(=O)N[C@@H](CCC(=O)O)C(=O)N[C@@H](CO)C(=O)N[C@@H](CC(N)=O)C(=O)N[C@@H](CCC(N)=O)C(=O)N[C@@H](CCC(=O)O)C(=O)N[C@@H](CCCNC(=N)N)C(=O)NCC(=O)N[C@@H](C)C(=O)N[C@@H](CCCNC(=N)N)C(=O)N[C@@H](C)C(=O)N[C@@H](CCCNC(=N)N)C(=O)N[C@@H](CC(C)C)C(N)=O)[C@@H](C)CC)C(C)C)[C@@H](C)O [Growth Hormone Releasing Factor] was tested. Which “NFAT Luciferace units” value ([1]; 15 nM) did it give?
Answer: 4.5 ± 0.6 Luciferace units

Question: And the “ATP (nM ATP/well)” value ([2]; Table 4, 10 nM)?
Answer: 12.6 ± 0.9 nM ATP/well

Question: What does the source list for CSCC[C@H](NC(=O)[C@H](CC(C)C)NC(=O)[C@@H]1CCCN1C(=O)[C@H](Cc1ccccc1)NC(=O)[C@H](Cc1ccccc1)NC(=O)[C@@H]1CCC(=O)N1)C(N)=O [Septide] ([pGlu]FFPLM-NH2; C-terminus assumed)?
Answer: NFAT Luciferace units ([1]; 100 nM): 3.7 ± 0.9 Luciferace units; ATP (nM ATP/well) ([2]; Table 4, 100 nM): 25.1 ± 3.1 nM ATP/well

Question: Which “NFAT Luciferace units” value ([1]; 100 nM) does the source give for CSCC[C@H](NC(=O)[C@H](C)NC(=O)[C@@H]1CCCN1C(=O)[C@H](CC(N)=O)NC(=O)[C@H](CO)NC(=O)[C@H](CC(N)=O)NC(=O)[C@H](C)NC(=O)[C@@H](N)CO)C(=O)N[C@@H](C)C(=O)N1CCC[C@H]1C(=O)N[C@@H](CCCNC(=N)N)C(=O)N[C@@H](CCC(=O)O)C(=O)N[C@@H](CCCNC(=N)N)C(=O)N[C@@H](CCCCN)C(=O)N[C@@H](C)C(=O)NCC(=O)N[C@H]1CSSC[C@@H](C(=O)O)NC(=O)[C@H](CO)NC(=O)[C@H]([C@@H](C)O)NC(=O)[C@H](Cc2ccccc2)NC(=O)[C@H]([C@@H](C)O)NC(=O)[C@H](CCCCN)NC(=O)[C@H](Cc2c[nH]c3ccccc23)NC(=O)[C@H](Cc2ccccc2)NC(=O)[C@H](Cc2ccccc2)NC(=O)[C@H](CC(N)=O)NC(=O)[C@H](CCCCN)NC1=O [Somatostatin-28] here?
Answer: 3.0 ± 0.4 Luciferace units

Question: What about the “Fold Induction NFAT” value ([1]; 100 nM) of the same compound?
Answer: 1.6* fold

Question: What about the “ATP (nM ATP/well)” value ([2]; Table 4, 10 nM) of the same compound?
Answer: 17.1 ± 1.5 nM ATP/well

Question: And the “Fold Induction ATP” value ([2]; Table 4, 10 nM)?
Answer: 1.2* fold

Question: What does the source list for CC(C)C[C@H](NC(=O)[C@H](Cc1ccccc1)NC(=O)CNC(=O)CNC(=O)[C@@H](N)Cc1ccc(O)cc1)C(=O)N[C@@H](CCCNC(=N)N)C(=O)N[C@@H](CCCCN)C(=O)N[C@@H](Cc1ccc(O)cc1)C(=O)N1CCC[C@H]1C(=O)N[C@@H](CCCCN)C(=O)O [α-Neo-Endorphin] (H-YGGFLRKYPK-OH; N-terminus and C-terminus assumed)?
Answer: % Doublecortin-positive cells (Adult neural stem cells): 4.0%; Fold Induction (Doublecortin-positive cells) (Adult neural stem cells): 1.6 fold; cAMP (pmol/well) ([3]; 1 nM (cAMP concentration)): 0.36 ± 0.09 pmol/well; Fold Induction cAMP ([3]; 1 nM): 1.7* (1 nM) fold; ATP (nM ATP/well) ([2]; Table 2, 100 nM, 4 days): 13.8 ± 2.1 nM ATP/well; Fold Induction ATP ([2]; Table 2, 100 nM, 4 days): 1.8** fold

Question: CSCC[C@H](NC(=O)[C@H](CC(C)C)NC(=O)CNC(=O)[C@@H](NC(=O)[C@H](Cc1ccccc1)NC(=O)[C@H](CO)NC(=O)[C@H](CC(=O)O)NC(=O)[C@@H](NC(=O)[C@H](CCCCN)NC(=O)[C@@H](N)Cc1c[nH]cn1)[C@@H](C)O)C(C)C)C(N)=O [α-Neurokinin] was tested. Which “% Doublecortin-positive cells” value (Adult neural stem cells) did it give?
Answer: 4.6%

Question: And the “cAMP (pmol/well)” value ([3]; 10 nM (cAMP concentration))?
Answer: 0.11 ± 0.03 pmol/well

Question: What about the “ATP (nM ATP/well)” value ([2]; Table 2, 100 nM, 4 days) of the same compound?
Answer: 11.0 ± 1.4 nM ATP/well

Question: Which results are given for CSCC[C@H](NC(=O)[C@H](CCCNC(=N)N)NC(=O)[C@H](Cc1ccc(O)cc1)NC(=O)[C@@H]1CCCN1C(=O)CNC(=O)[C@H](CCC(=O)O)NC(=O)[C@H](CC(=O)O)NC(=O)[C@H](CCCCN)NC(=O)[C@H](CCCCN)NC(=O)[C@H](CCC(=O)O)NC(=O)[C@H](C)N)C(=O)N[C@@H](CCC(=O)O)C(=O)N[C@@H](Cc1c[nH]cn1)C(=O)N[C@@H](Cc1ccccc1)C(=O)N[C@@H](CCCNC(=N)N)C(=O)N[C@@H](Cc1c[nH]c2ccccc12)C(=O)NCC(=O)N[C@@H](CO)C(=O)N1CCC[C@H]1C(=O)N1CCC[C@H]1C(=O)N[C@@H](CCCCN)C(=O)N[C@@H](CC(=O)O)C(=O)O [β-MSH, β-Melanocyte Stimulating Hormone]?
Answer: % Doublecortin-positive cells (Adult neural stem cells): 4.1%; cAMP (pmol/well) ([3]; 10 nM (cAMP concentration)): 0.23 ± 0.02 pmol/well; ATP (nM ATP/well) ([2]; Table 2, 100 nM, 4 days): 13.6 ± 1.6 nM ATP/well

Question: What does the source list for “KYGQVPMCDAGEQCAVRKGARIGKLCDCPRGTSCNSFLLKCL (disulfide 8-26, 14-34, 28-41) [CART (61-102)]”?
Answer: % Doublecortin-positive cells (Adult neural stem cells): 4.7%; Fold Induction (Doublecortin-positive cells) (Adult neural stem cells): 1.8 fold; cAMP (pmol/well) ([3]; 10 nM (cAMP concentration)): 0.13 ± 0.02 pmol/well; Fold Induction cAMP ([3]; 10 nM): 1.2* (10 nM) fold; ATP (nM ATP/well) ([2]; Table 2, 100 nM, 4 days): 8.3 ± 0.4 nM ATP/well; Fold Induction ATP ([2]; Table 2, 100 nM, 4 days): 1.2** fold
